From PubChem BioAssay AID248 (DTP/NCI, 2004)
Several values for one entry are separate records, joined by “and”; a condition that tells them apart may be missing. Equal values may be shown once. Inconclusive results and toxic doses are left out. No stated cut-off is given here; in the data, active means T/C of 150% or more; inactive means T/C below 125%. Square brackets hold non-standard residues; d marks the D form. Peptide text beside a SMILES is read from it. * marks the point of attachment. ξ: configuration not given here. ξY = NC(Cc1ccc(O)cc1)C(=O)O; Cbz = O=C(OCc1ccccc1)*

Test system: L1210 leukemia ip in BDF1 mice, survival T/C
Assay: NCI In Vivo Anticancer Drug Screen. Data for tumor model L1210 Leukemia (intraperitoneal) in B6D2F1 (BDF1) mice
Conditions: endpoint: mean survival time, higher = longer survival
Summary of the method: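 Survival endpoint. Drug-treated group vs vehicle group, expressed as T divided by C. Tumor passaged by transplantation.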

[1] = dose: 100.0 mg/kg/injection, schedule: Q01DX009 (ip), vehicle: Klucel (hydroxypropylcellulose) (HPC)
[2] = dose: 200.0 mg/kg/injection, schedule: Q01DX009 (ip), vehicle: Klucel (hydroxypropylcellulose) (HPC)
[3] = dose: 400.0 mg/kg/injection, schedule: Q01DX009 (ip), vehicle: Klucel (hydroxypropylcellulose) (HPC)
[4] = dose: 100.0 mg/kg/injection, schedule: Q01DX009 (ip), vehicle: saline with Tween-80
[5] = dose: 200.0 mg/kg/injection, schedule: Q01DX009 (ip), vehicle: saline with Tween-80
[6] = dose: 150.0 mg/kg/injection, schedule: Q01DX001 (ip), vehicle: other
[7] = dose: 100.0 mg/kg/injection, schedule: Q04DX003 (ip), vehicle: saline with Tween-80
[8] = dose: 200.0 mg/kg/injection, schedule: Q04DX003 (ip), vehicle: saline with Tween-80
[9] = dose: 400.0 mg/kg/injection, schedule: Q04DX003 (ip), vehicle: saline with Tween-80
[10] = dose: 100.0 mg/kg/injection, schedule: Q01DX001 (ip), vehicle: saline
[11] = dose: 200.0 mg/kg/injection, schedule: Q01DX001 (ip), vehicle: saline
[12] = dose: 400.0 mg/kg/injection, schedule: Q01DX001 (ip), vehicle: saline
[13] = dose: 100.0 mg/kg/injection, schedule: Q04DX003 (ip), vehicle: saline
[14] = dose: 200.0 mg/kg/injection, schedule: Q04DX003 (ip), vehicle: saline
[15] = dose: 400.0 mg/kg/injection, schedule: Q04DX003 (ip), vehicle: saline

Measured: T/C

O=C(N/N=C/c1ccccc1Cl)c1ccccc1NC(=O)C1CC1
inactive: [1] 97 % of control | [2] 98 % of control | [3] 101 % of control

COc1cccc(C(C)(C)CC(=O)O)c1
inactive: dose: 50.0 mg/kg/injection, schedule: Q01DX009 (ip), vehicle: saline with Tween-80 90 % of control | [4] 90 % of control | [5] 87 % of control

CN(C)CCN(C)N=Nc1c(-c2cccs2)n[nH]c1C(F)(F)F
inactive: dose: 75.0 mg/kg/injection, schedule: Q01DX001 (ip), vehicle: other 94 % of control | [6] 98 % of control | dose: 300.0 mg/kg/injection, schedule: Q01DX001 (ip), vehicle: other 93 % of control

CCOC(=O)C(Cc1ccc(O)cc1)NC(=O)CNC(=O)OCc1ccccc1 (stereo not drawn) (Cbz-Gly-[ξY]-OEt)
inactive: [7] 106 % of control | [8] 95 % of control | [9] 96 % of control

S=C(NCCCN1Cc2ccccc2C1)Nc1ccccc1
inactive: [10] 96 % of control | [11] 104 % of control | [12] 96 % of control

CCOC(=O)CC(C)=O.CCOC(=O)CC(C)=O.CCOC(=O)CC(C)=O.[Al]
inactive: dose: 12.5 mg/kg/injection, schedule: Q01DX005 (ip), vehicle: Klucel (hydroxypropylcellulose) (HPC) 96 % of control | dose: 12.5 mg/kg/injection, schedule: Q01DX009 (ip), vehicle: Klucel (hydroxypropylcellulose) (HPC) 104 % of control | dose: 25.0 mg/kg/injection, schedule: Q01DX005 (ip), vehicle: Klucel (hydroxypropylcellulose) (HPC) 100 % of control | dose: 25.0 mg/kg/injection, schedule: Q01DX009 (ip), vehicle: Klucel (hydroxypropylcellulose) (HPC) 107 % of control | dose: 50.0 mg/kg/injection, schedule: Q01DX005 (ip), vehicle: Klucel (hydroxypropylcellulose) (HPC) 93 % of control | dose: 100.0 mg/kg/injection, schedule: Q04DX002 (ip), vehicle: Klucel (hydroxypropylcellulose) (HPC) 100 % of control | dose: 200.0 mg/kg/injection, schedule: Q04DX002 (ip), vehicle: Klucel (hydroxypropylcellulose) (HPC) 93 % of control | dose: 400.0 mg/kg/injection, schedule: Q04DX002 (ip), vehicle: Klucel (hydroxypropylcellulose) (HPC) 107 % of control

CCC(C(=O)O)N1C(=O)C2C3CCC(C3)C2C1=O (stereo not given)
inactive: [7] 98 % of control | [8] 103 % of control | [9] 103 % of control

CCCC/C(=N\OP(=O)(OCC)OCC)c1ccccc1
inactive: dose: 75.0 mg/kg/injection, schedule: Q01DX001 (ip), vehicle: saline 101 % of control | dose: 150.0 mg/kg/injection, schedule: Q01DX001 (ip), vehicle: saline 107 % of control | dose: 300.0 mg/kg/injection, schedule: Q01DX001 (ip), vehicle: saline 91 % of control

C=C(NC(C)=O)C(O)c1ccc([N+](=O)[O-])cc1 (stereo not given)
inactive: dose: 50.0 mg/kg/injection, schedule: Q01DX001 (ip), vehicle: carboxymethylcellulose (CMC) 96 % of control | dose: 100.0 mg/kg/injection, schedule: Q01DX001 (ip), vehicle: carboxymethylcellulose (CMC) 100 % of control and 90 % of control | [1] 95 % of control | dose: 100.0 mg/kg/injection, schedule: Q04DX003 (ip), vehicle: Klucel (hydroxypropylcellulose) (HPC) 101 % of control | dose: 200.0 mg/kg/injection, schedule: Q01DX001 (ip), vehicle: carboxymethylcellulose (CMC) 94 % of control and 97 % of control | [2] 93 % of control | dose: 200.0 mg/kg/injection, schedule: Q04DX003 (ip), vehicle: Klucel (hydroxypropylcellulose) (HPC) 98 % of control | dose: 400.0 mg/kg/injection, schedule: Q01DX001 (ip), vehicle: carboxymethylcellulose (CMC) 100 % of control and 87 % of control | [3] 95 % of control | dose: 400.0 mg/kg/injection, schedule: Q04DX003 (ip), vehicle: Klucel (hydroxypropylcellulose) (HPC) 95 % of control

CS(=O)(=O)OCCN(CCOS(C)(=O)=O)c1ccc([N+](=O)[O-])c(F)c1
inactive: dose: 50.0 mg/kg/injection, schedule: Q01DX001 (ip), vehicle: saline 110 % of control | [10] 112 % of control | [11] 115 % of control | [12] 105 % of control

O=C(O)C(=O)Cc1cccc(Cl)c1[N+](=O)[O-]
inactive: dose: 75.0 mg/kg/injection, schedule: Q04DX003 (ip), vehicle: saline 96 % of control | dose: 150.0 mg/kg/injection, schedule: Q04DX003 (ip), vehicle: saline 102 % of control | dose: 300.0 mg/kg/injection, schedule: Q04DX003 (ip), vehicle: saline 98 % of control

O=C(Cn1ccccc1=O)c1ccccc1
inactive: [7] 101 % of control | [9] 100 % of control

Cc1ccc(C(=O)NO)cc1
inactive: dose: 100.0 mg/kg/injection, schedule: Q04DX003 (ip), vehicle: carboxymethylcellulose (CMC) 98 % of control | dose: 200.0 mg/kg/injection, schedule: Q04DX003 (ip), vehicle: carboxymethylcellulose (CMC) 90 % of control | dose: 400.0 mg/kg/injection, schedule: Q04DX003 (ip), vehicle: carboxymethylcellulose (CMC) 98 % of control

CCC(C)N=Cc1ccccc1O.CCC(C)N=Cc1ccccc1O.[Cu] (stereo not given)
inactive: dose: 9.5 mg/kg/injection, schedule: Q01DX001 (ip), vehicle: other 100 % of control | dose: 19.0 mg/kg/injection, schedule: Q01DX001 (ip), vehicle: other 107 % of control | dose: 38.0 mg/kg/injection, schedule: Q01DX001 (ip), vehicle: other 100 % of control

Cc1ccccc1C1(O)c2ccccc2-c2ccccc21
inactive: [7] 98 % of control | [8] 96 % of control | [9] 96 % of control

CC1(C)OC2C(N)OC(CO)C2O1 (stereo not given)
inactive: [13] 95 % of control | [14] 110 % of control | [15] 104 % of control

CCCCNC(=O)COc1c(C)cccc1Cl
inactive: dose: 25.0 mg/kg/injection, schedule: Q04DX002 (ip), vehicle: saline with Tween-80 101 % of control | dose: 50.0 mg/kg/injection, schedule: Q04DX002 (ip), vehicle: saline with Tween-80 96 % of control | dose: 100.0 mg/kg/injection, schedule: Q04DX002 (ip), vehicle: saline with Tween-80 96 % of control

O=C(CSc1cc(Cl)c(Cl)cc1Cl)Nc1ccc(Cl)cc1Cl
inactive: dose: 100.0 mg/kg/injection, schedule: Q01DX001 (ip), vehicle: saline with Tween-80 87 % of control | dose: 200.0 mg/kg/injection, schedule: Q01DX001 (ip), vehicle: saline with Tween-80 93 % of control | dose: 400.0 mg/kg/injection, schedule: Q01DX001 (ip), vehicle: saline with Tween-80 93 % of control

O=C(NC1(C(=O)O)CCCC1)C(F)(F)F
inactive: [13] 98 % of control | [14] 118 % of control | [15] 111 % of control

CC(=O)C(C)(C)Cl
inactive: [4] 94 % of control | [5] 95 % of control | dose: 400.0 mg/kg/injection, schedule: Q01DX009 (ip), vehicle: saline with Tween-80 101 % of control

CCNCCn1cccc1
inactive: dose: 50.0 mg/kg/injection, schedule: Q01DX009 (ip), vehicle: saline 97 % of control | dose: 100.0 mg/kg/injection, schedule: Q01DX009 (ip), vehicle: saline 100 % of control | [13] 97 % of control | dose: 200.0 mg/kg/injection, schedule: Q01DX009 (ip), vehicle: saline 97 % of control | [14] 100 % of control

ClCCN1CCC2(CC1)SSC1(CCN(CCCl)CC1)S2
inactive: dose: 10.0 mg/kg/injection, schedule: Q01DX009 (ip), vehicle: saline 107 % of control | dose: 20.0 mg/kg/injection, schedule: Q01DX001 (ip), vehicle: Klucel (hydroxypropylcellulose) (HPC) 108 % of control | dose: 20.0 mg/kg/injection, schedule: Q01DX009 (ip), vehicle: saline 103 % of control | dose: 40.0 mg/kg/injection, schedule: Q01DX001 (ip), vehicle: Klucel (hydroxypropylcellulose) (HPC) 121 % of control

CC/C(=N/OC(=O)NC)c1ccccc1
inactive: dose: 44.0 mg/kg/injection, schedule: Q01DX001 (ip), vehicle: other 94 % of control and 106 % of control | dose: 67.0 mg/kg/injection, schedule: Q01DX001 (ip), vehicle: other 93 % of control and 110 % of control | dose: 100.0 mg/kg/injection, schedule: Q01DX001 (ip), vehicle: other 102 % of control and 110 % of control | [6] 96 % of control and 108 % of control

CSc1cccc(N2C(=O)C=CC2=O)c1
inactive: dose: 2.5 mg/kg/injection, schedule: Q04DX002 (ip), vehicle: Klucel (hydroxypropylcellulose) (HPC) 92 % of control | dose: 5.0 mg/kg/injection, schedule: Q04DX002 (ip), vehicle: Klucel (hydroxypropylcellulose) (HPC) 88 % of control | dose: 10.0 mg/kg/injection, schedule: Q04DX002 (ip), vehicle: Klucel (hydroxypropylcellulose) (HPC) 95 % of control and 97 % of control

Cn1cnc(=O)c2ccccc21
inactive: [13] 88 % of control | [14] 100 % of control
